Experimental data as given in ChEMBL document CHEMBL5029194, “Discovery and Optimization of 7-Alkylidenyltetrahydroindazole-Based Acylsulfonamide EP3 Antagonists” (ACS Med Chem Lett, 2022).
Calls of active or inactive are those of the source. The rule behind the calls is not given here.

How the values were obtained:
[1] = AUClast in Sprague-Dawley rat at 10 mg/kg, po measured up to 7 hrs by LC-MS-MS analysis; assay type: ADME, organism-based; design: route oral, dose 10 mg/kg, time <=7; conditions: in vivo
[2] = Cmax in Sprague-Dawley rat at 10 mg/kg, po measured up to 7 hrs by LC-MS-MS analysis; assay type: ADME, organism-based; design: route oral, dose 10 mg/kg, time <=7; conditions: in vivo
[3] = Oral bioavailability in Sprague-Dawley rat at 10 mg/kg measured up to 24 hrs by LC-MS-MS analysis; assay type: ADME, organism-based; conditions: in vivo
[4] = Cmax in Sprague-Dawley rat at 10 mg/kg, po measured up to 24 hrs by LC-MS-MS analysis; assay type: ADME, organism-based; design: route oral, dose 10 mg/kg, time <=24; conditions: in vivo
[5] = Half life in Sprague-Dawley rat at 2 mg/kg, iv measured up to 24 hrs by LC-MS-MS analysis; assay type: ADME, organism-based; conditions: in vivo
[6] = Half life in Sprague-Dawley rat at 10 mg/kg, po measured up to 24 hrs by LC-MS-MS analysis; assay type: ADME, organism-based; conditions: in vivo
[7] = Clearance in Sprague-Dawley rat at 2 mg/kg, iv measured up to 24 hrs by LC-MS-MS analysis; assay type: ADME, organism-based; conditions: in vivo
[8] = AUC(0 to 24 hrs) in Sprague-Dawley rat at 10 mg/kg, po measured up to 24 hrs by LC-MS-MS analysis; assay type: ADME, organism-based; design: route oral, dose 10 mg/kg, time <=24; conditions: in vivo
[9] = AUClast in Sprague-Dawley rat at 10 mg/kg, po measured up to 24 hrs by LC-MS-MS analysis; assay type: ADME, organism-based; design: route oral, dose 10 mg/kg, time <=24; conditions: in vivo
[10] = Volume of distribution at steady state in Sprague-Dawley rat at 2 mg/kg, iv measured up to 24 hrs by LC-MS-MS analysis; assay type: ADME, organism-based; conditions: in vivo, read-out: Vdss
[11] = test system: Rattus norvegicus; assay: In vivo antagonist activity at […] receptor in Sprague-Dawley rat assessed as reversal of sulprostone induced reduction in circulating insulin levels at 10 times Ki, administered as iv infusion measured up to 30 mins after glucose administration by glucose tolerance test; assay type: functional, organism-based; conditions: time min <=30
[12] = molecular target: Prostaglandin E2 receptor EP2 subtype (Homo sapiens, UniProt P43116); assay: Binding affinity to human EP2 receptor assessed as inhibition constant
Sequence of Prostaglandin E2 receptor EP2 subtype (P43116 whole entry, the tested form may be a part): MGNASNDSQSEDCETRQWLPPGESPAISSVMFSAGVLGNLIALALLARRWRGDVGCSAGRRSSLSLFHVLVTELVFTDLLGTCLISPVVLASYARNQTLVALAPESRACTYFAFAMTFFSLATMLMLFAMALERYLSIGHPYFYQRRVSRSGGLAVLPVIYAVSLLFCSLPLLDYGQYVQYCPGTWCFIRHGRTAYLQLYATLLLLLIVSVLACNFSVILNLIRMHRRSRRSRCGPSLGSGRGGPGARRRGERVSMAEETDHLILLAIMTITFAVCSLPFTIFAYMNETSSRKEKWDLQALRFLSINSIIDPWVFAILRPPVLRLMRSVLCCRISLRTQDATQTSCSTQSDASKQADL

[13] = Free plasma concentration in Sprague-Dawley rat at 10 times Ki administered as iv infusion measured after 2 to 50 mins; assay type: ADME, organism-based; conditions: in vivo, time 2-50 min
[14] = molecular target: Prostaglandin E2 receptor EP4 subtype (Homo sapiens, UniProt P35408); assay: Binding affinity to human EP4 receptor assessed as inhibition constant
Sequence of Prostaglandin E2 receptor EP4 subtype (P35408 whole entry): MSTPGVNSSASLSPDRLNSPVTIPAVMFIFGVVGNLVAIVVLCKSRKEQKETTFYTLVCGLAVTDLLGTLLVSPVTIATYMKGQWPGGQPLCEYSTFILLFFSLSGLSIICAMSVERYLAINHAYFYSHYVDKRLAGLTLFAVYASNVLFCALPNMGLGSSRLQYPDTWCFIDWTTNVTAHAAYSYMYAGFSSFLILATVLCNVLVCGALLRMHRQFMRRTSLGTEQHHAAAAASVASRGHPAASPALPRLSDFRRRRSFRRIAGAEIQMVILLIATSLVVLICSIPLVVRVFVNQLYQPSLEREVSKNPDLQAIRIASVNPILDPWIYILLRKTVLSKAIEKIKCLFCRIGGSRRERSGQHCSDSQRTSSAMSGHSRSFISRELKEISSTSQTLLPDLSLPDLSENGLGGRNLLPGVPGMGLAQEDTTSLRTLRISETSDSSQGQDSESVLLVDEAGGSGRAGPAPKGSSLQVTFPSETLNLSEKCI

[15] = molecular target: T1, Prostaglandin E2 receptor EP1 subtype (Homo sapiens, UniProt P34995); assay: Binding affinity to human EP1 receptor assessed as inhibition constant
T1 sequence (P34995 whole entry): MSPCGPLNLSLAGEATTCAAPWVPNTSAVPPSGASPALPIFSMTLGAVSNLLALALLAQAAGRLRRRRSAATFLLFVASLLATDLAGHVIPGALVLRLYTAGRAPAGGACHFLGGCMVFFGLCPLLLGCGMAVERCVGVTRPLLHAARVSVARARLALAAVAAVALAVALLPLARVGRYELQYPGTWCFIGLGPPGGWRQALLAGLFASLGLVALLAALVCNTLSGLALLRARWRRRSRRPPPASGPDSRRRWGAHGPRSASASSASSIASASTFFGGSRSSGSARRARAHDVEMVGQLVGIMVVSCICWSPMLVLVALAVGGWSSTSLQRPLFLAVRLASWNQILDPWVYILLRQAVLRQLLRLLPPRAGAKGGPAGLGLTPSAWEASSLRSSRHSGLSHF

[16] = molecular target: T2, Prostaglandin E2 receptor EP3 subtype (Rattus norvegicus, UniProt P34980); assay: Binding affinity to rat EP3 receptor assessed as inhibition constant
T2 sequence (P34980 whole entry): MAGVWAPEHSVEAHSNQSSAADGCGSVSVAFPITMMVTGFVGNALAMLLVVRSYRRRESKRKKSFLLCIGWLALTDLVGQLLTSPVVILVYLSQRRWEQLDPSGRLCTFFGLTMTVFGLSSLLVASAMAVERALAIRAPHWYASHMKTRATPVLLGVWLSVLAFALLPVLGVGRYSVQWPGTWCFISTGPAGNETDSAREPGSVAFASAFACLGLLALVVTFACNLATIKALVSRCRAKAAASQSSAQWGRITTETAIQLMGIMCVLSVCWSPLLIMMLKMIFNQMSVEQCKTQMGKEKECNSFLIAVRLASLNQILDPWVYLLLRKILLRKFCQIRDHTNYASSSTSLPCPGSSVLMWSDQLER

Compound: COc1ccc(Cl)cc1S(=O)(=O)NC(=O)NC/C(F)=C1\CCCc2cnn(Cc3ccc(Cl)cc3Cl)c21
- AUC(0-t) at 7 h [1]: 10.8 µM·h
- Cmax [2]: 4750 nM

Compound: O=C(NC/C=C1\CCCc2cnn(Cc3ccc(Cl)cc3Cl)c21)NS(=O)(=O)c1cc(Cl)c(Cl)s1
- bioavailability [3]: 84%
- Cmax [4]: 1670 nM
- half-life [5]: 0.79 h
- half-life [6]: 2.8 h
- clearance [7]: 81.2 mL/min/kg
- AUC(0-t) [8]: 2.75 µM·h
- AUC(0-t) at 24 h [9]: 2.75 µM·h
- Vd [10]: 2.21 L/kg

Compound: COc1ccc(S(=O)(=O)NC(=O)NC/C(F)=C2\CCCc3cnn(Cc4ccc(Cl)cc4Cl)c32)cc1Cl
- bioavailability [3]: 44%
- AUC(0-t) at 7 h [1]: 31.9 µM·h
- Cmax [2]: 7100 nM
- Cmax [4]: 9390 nM
- half-life [5]: 6.2 h
- half-life [6]: 2.9 h
- clearance [7]: 2.6 mL/min/kg
- AUC(0-t) [8]: 49 µM·h
- Vd [10]: 0.346 L/kg

Compound: O=C(NC/C=C1\CCCc2cnn(Cc3ccc(Cl)cc3Cl)c21)NS(=O)(=O)c1ccc(Cl)cc1
- bioavailability [3]: 25%
- Cmax [4]: 1110 nM
- Activity [11]: Active
- Ki [12]: > 10 µM
- half-life [5]: 1.9 h
- Cp(f) [13]: 36 nM
- half-life [6]: 2.8 h
- clearance [7]: 14.9 mL/min/kg
- AUC(0-t) [8]: 5.27 µM·h
- Ki [14]: > 10 µM
- Ki [15]: 3.5 µM
- AUC(0-t) at 24 h [9]: 5.27 µM·h
- Vd [10]: 1.44 L/kg
- Ki [16]: 0.0036 µM

Compound: Cc1cc(S(=O)(=O)NC(=O)NC/C(F)=C2\CCCc3cnn(Cc4ccc(Cl)cc4Cl)c32)sc1Cl
- bioavailability [3]: 55%
- AUC(0-t) at 7 h [1]: 57.8 µM·h
- Cmax [2]: 11200 nM
- Cmax [4]: 9950 nM
- half-life [5]: 5.9 h
- half-life [6]: 3.2 h
- clearance [7]: 1.66 mL/min/kg
- AUC(0-t) [8]: 96.2 µM·h
- Vd [10]: 0.491 L/kg

Compound: O=C(NC/C=C1\CCCc2cnn(C3CCN(c4ccc(F)cc4)CC3)c21)NS(=O)(=O)c1cc(Cl)c(Cl)s1
- AUC(0-t) at 7 h [1]: 0.73 µM·h
- Cmax [2]: 130 nM

Compound: O=C(NS(=O)(=O)c1cc(Cl)c(Cl)s1)OC/C=C1\CCCc2cnn(Cc3ccc(Cl)cc3Cl)c21
- bioavailability [3]: 24%
- Cmax [4]: 130 nM
- half-life [5]: 2.1 h
- half-life [6]: 2.3 h
- clearance [7]: 71.7 mL/min/kg
- AUC(0-t) [8]: 0.89 µM·h
- Vd [10]: 3.45 L/kg

Compound: Cc1ncc(S(=O)(=O)NC(=O)NC/C=C2\CCCc3cnn(Cc4ccc(Cl)cc4Cl)c32)s1
- AUC(0-t) at 7 h [1]: 2.4 µM·h
- Cmax [2]: 510 nM

Compound: O=C(NC/C(F)=C1\CCCc2cnn(-c3ccc(C(F)(F)F)cc3)c21)NS(=O)(=O)c1cc(Cl)c(Cl)s1
- AUC(0-t) at 7 h [1]: 3.68 µM·h
- Cmax [2]: 700 nM

Compound: O=C(NC/C(F)=C1\CCCc2cnn(Cc3ccc(Cl)cc3Cl)c21)NS(=O)(=O)c1cc(Cl)c(Cl)s1
- AUC(0-t) at 7 h [1]: 16.6 µM·h
- Cmax [2]: 3820 nM

Compound: O=C(NS(=O)(=O)c1ccc(Cl)cc1)OC/C=C1\CCCc2cnn(Cc3ccc(Cl)cc3Cl)c21
- bioavailability [3]: 46%
- Cmax [4]: 750 nM
- half-life [5]: 3.5 h
- half-life [6]: 3.6 h
- clearance [7]: 21.3 mL/min/kg
- AUC(0-t) [8]: 7.43 µM·h
- Vd [10]: 4.61 L/kg

Compound: O=C(NC/C=C1\CCCc2cnn(-c3ccc(C(F)(F)F)cc3)c21)NS(=O)(=O)c1cc(Cl)c(Cl)s1
- AUC(0-t) at 7 h [1]: 7.39 µM·h
- Cmax [2]: 1540 nM
